Source: US20050250801A1, “Method of treating cancer with azaspirane compositions” (priority 2003, published 2005)
Like-named read-outs stand apart in the source and are kept apart here.

Columns and labels:
Assay type in all cases: cell-based
SF-539 = assay: NCI in vitro SRB assay, CNS Cancer; conditions: for GI50: Homo sapiens
Experimental: (§1) An in vitro assay which tested the ability of N,N,-diethyl-8,8-dipropyl-2-azaspiro[4,5]decane-2-propanamine dimaleate (Compound 1) to inhibit the growth of known cancer cell lines was performed by the National Cancer Institute in accordance with standard procedures. See: Lin, Z. X., Hoult, J. R., and Raman, A. Sulphorhodamine B assay for measuring proliferation of a pigmented melanocyte cell line and its application to the evaluation of crude drugs used in the treatment of vitiligo. J Ethnopharmacol. 66: 141-150, 1999. Briefly, selected tumor cell lines were cultured in media containing five different concentrations of Compound 1. After 48 hours of continuous exposure, a sulforhodamine B (SRB) assay was used to estimate cell viability or growth via optical measurements.
(§2) From the measurements, the following values were determined: 1) the concentration of Compound 1 at which a tumor cell growth inhibition of 50% (relative to control) occurs (GI50), 2) the concentration of Compound 1 at which no growth occurs (total growth inhibition, TGI), and 3) the concentration of Compound 1 at which the […] (LC 50). […] FIG. 6 illustrates, graphically, tumor cell growth as a function of Compound 1 concentration of the scanned tumor cell lines.

SF-268 = assay: NCI in vitro SRB assay, CNS Cancer; conditions: for CC50 / GI50: Homo sapiens
Experimental: as §1, §2

U251 = assay: NCI in vitro SRB assay, CNS Cancer; conditions: for CC50 / GI50: Homo sapiens; for GI50: U-251
Experimental: as §1, §2

SF-295 = assay: NCI in vitro SRB assay, CNS Cancer; conditions: for CC50 / GI50: Homo sapiens
Experimental: as §1, §2

786-0 = assay: NCI in vitro SRB assay, Renal Cancer; conditions: for CC50 / GI50: Homo sapiens
Experimental: as §1, §2

TK-10 = assay: NCI in vitro SRB assay, Renal Cancer; conditions: for CC50 / GI50: Homo sapiens
Experimental: as §1, §2

ACHN = assay: NCI in vitro SRB assay, Renal Cancer; conditions: for GI50: Homo sapiens
Experimental: as §1, §2

UO-31 = assay: NCI in vitro SRB assay, Renal Cancer; conditions: for CC50 / GI50: Homo sapiens
Experimental: as §1, §2

[1] = read-out: Log10 GI50 (converted)
[2] = SF-268, Log10 conc -4.0 Moles/L
[3] = SF-268, Log10 conc -5.0 Moles/L
[4] = SF-268, Log10 conc -6.0 Moles/L
[5] = SF-268, Log10 conc -7.0 Moles/L
[6] = SF-268, Log10 conc -8.0 Moles/L
[7] = SF-295, Log10 conc -4.0 Moles/L
[8] = SF-295, Log10 conc -5.0 Moles/L
[9] = SF-295, Log10 conc -6.0 Moles/L
[10] = SF-295, Log10 conc -7.0 Moles/L
[11] = SF-295, Log10 conc -8.0 Moles/L

CCCC1(CCC)CCC2(CCN(CCCN(CC)CC)C2)CC1.O=C(O)/C=C\C(=O)O.O=C(O)/C=C\C(=O)O [Compound 1, N,N,-diethyl-8,8-dipropyl-2-azaspiro[4,5]decane-2-propanamine dimaleate]
Log10 TGI (SF-539): −5.50 | TGI (SF-539): 3.13 µM | GI50 (SF-539; read-out: GI50): 1.57 µM | GI50 (SF-539; [1]): 1.58 µM | Mean Optical Densities (SF-539; Log10 conc -4.0 Moles/L): 0.033 | Percent Growth (SF-539; Log10 conc -4.0 Moles/L): −89% | Mean Optical Densities (SF-539; Log10 conc -5.0 Moles/L): 0.050 | Percent Growth (SF-539; Log10 conc -5.0 Moles/L): −84% | Mean Optical Densities (SF-539; Log10 conc -6.0 Moles/L): 0.559 | Percent Growth (SF-539; Log10 conc -6.0 Moles/L): 83% | Mean Optical Densities (SF-539; Log10 conc -7.0 Moles/L): 0.612 | Percent Growth (SF-539; Log10 conc -7.0 Moles/L): 100% | Mean Optical Densities (SF-539; Log10 conc -8.0 Moles/L): 0.591 | Percent Growth (SF-539; Log10 conc -8.0 Moles/L): 93% | CC50 (SF-268; SF-268, read-out: LC50): 5.8 µM | CC50 (SF-268; SF-268, read-out: Log10 LC50 (converted)): 5.75 µM | GI50 (SF-268; SF-268, read-out: GI50): 1.43 µM | GI50 (SF-268; SF-268, read-out: Log10 GI50 (converted)): 1.45 µM | Log10 TGI (SF-268; SF-268): −5.54 | TGI (SF-268; SF-268): 2.88 µM | Mean Optical Densities (SF-268; [2]): 0.058 | Percent Growth (SF-268; [2]): −80% | Mean Optical Densities (SF-268; [3]): 0.033 | Percent Growth (SF-268; [3]): −89% | Mean Optical Densities (SF-268; [4]): 1.004 | Percent Growth (SF-268; [4]): 75% | Mean Optical Densities (SF-268; [5]): 1.181 | Percent Growth (SF-268; [5]): 94% | Mean Optical Densities (SF-268; [6]): 1.193 | Percent Growth (SF-268; [6]): 95% | CC50 (U251; U-251, read-out: LC50): 4.69 µM | CC50 (U251; U-251, read-out: Log10 LC50 (converted)): 4.68 µM | GI50 (U251; U251, read-out: GI50): 1.03 µM | GI50 (U251; U251, read-out: Log10 GI50 (converted)): 1.02 µM | Log10 TGI (U251; U251): −5.66 | TGI (U251; U251): 2.2 µM | Mean Optical Densities (U251; U251, Log10 conc -4.0 Moles/L): −0.042 | Percent Growth (U251; U251, Log10 conc -4.0 Moles/L): −100% | Mean Optical Densities (U251; U251, Log10 conc -5.0 Moles/L): −0.049 | Percent Growth (U251; U251, Log10 conc -5.0 Moles/L): −100% | Mean Optical Densities (U251; U251, Log10 conc -6.0 Moles/L): 0.602 | Percent Growth (U251; U251, Log10 conc -6.0 Moles/L): 52% | Mean Optical Densities (U251; U251, Log10 conc -7.0 Moles/L): 0.864 | Percent Growth (U251; U251, Log10 conc -7.0 Moles/L): 88% | Mean Optical Densities (U251; U251, Log10 conc -8.0 Moles/L): 0.885 | Percent Growth (U251; U251, Log10 conc -8.0 Moles/L): 90% | CC50 (SF-295; SF-295, read-out: LC50): 8.21 µM | CC50 (SF-295; SF-295, read-out: Log10 LC50 (converted)): 8.13 µM | GI50 (SF-295; SF-295, read-out: GI50): 1.93 µM | GI50 (SF-295; SF-295, read-out: Log10 GI50 (converted)): 1.95 µM | Log10 TGI (SF-295; SF-295): −5.40 | TGI (SF-295; SF-295): 3.98 µM | Mean Optical Densities (SF-295; [7]): 0.239 | Percent Growth (SF-295; [7]): −57% | Mean Optical Densities (SF-295; [8]): 0.202 | Percent Growth (SF-295; [8]): −64% | Mean Optical Densities (SF-295; [9]): 1.520 | Percent Growth (SF-295; [9]): 96% | Mean Optical Densities (SF-295; [10]): 1.653 | Percent Growth (SF-295; [10]): 109% | Mean Optical Densities (SF-295; [11]): 1.614 | Percent Growth (SF-295; [11]): 105% | Log10 TGI (786-0; 786-0): −5.48 | TGI (786-0; 786-0): 3.33 µM | Mean Optical Densities (786-0; 786-0, Log10 conc -4.0 Moles/L): 0.132 | Percent Growth (786-0; 786-0, Log10 conc -4.0 Moles/L): −64% | Mean Optical Densities (786-0; 786-0, Log10 conc -5.0 Moles/L): 0.121 | Percent Growth (786-0; 786-0, Log10 conc -5.0 Moles/L): −67% | Mean Optical Densities (786-0; 786-0, Log10 conc -6.0 Moles/L): 0.934 | Percent Growth (786-0; 786-0, Log10 conc -6.0 Moles/L): 73% | Mean Optical Densities (786-0; 786-0, Log10 conc -7.0 Moles/L): 1.091 | Percent Growth (786-0; 786-0, Log10 conc -7.0 Moles/L): 94% | Mean Optical Densities (786-0; 786-0, Log10 conc -8.0 Moles/L): 1.111 | Percent Growth (786-0; 786-0, Log10 conc -8.0 Moles/L): 96% | CC50 (786-0; 786-0, read-out: LC50): 7.57 µM | CC50 (786-0; 786-0, read-out: Log10 LC50 (converted)): 7.59 µM | GI50 (786-0; 786-0, read-out: GI50): 1.47 µM | GI50 (786-0; 786-0, read-out: Log10 GI50 (converted)): 1.48 µM | CC50 (TK-10; TK-10, read-out: LC50): 5.52 µM | CC50 (TK-10; TK-10, read-out: Log10 LC50 (converted)): 5.5 µM | GI50 (TK-10; TK-10, read-out: GI50): 1.27 µM | GI50 (TK-10; TK-10, read-out: Log10 GI50 (converted)): 1.26 µM | Log10 TGI (TK-10; TK-10): −5.58 | TGI (TK-10; TK-10): 2.65 µM | Mean Optical Densities (TK-10; TK-10, Log10 conc -4.0 Moles/L): 0.101 | Percent Growth (TK-10; TK-10, Log10 conc -4.0 Moles/L): −89% | Mean Optical Densities (TK-10; TK-10, Log10 conc -5.0 Moles/L): 0.087 | Percent Growth (TK-10; TK-10, Log10 conc -5.0 Moles/L): −90% | Mean Optical Densities (TK-10; TK-10, Log10 conc -6.0 Moles/L): 1.283 | Percent Growth (TK-10; TK-10, Log10 conc -6.0 Moles/L): 66% | Mean Optical Densities (TK-10; TK-10, Log10 conc -7.0 Moles/L): 1.389 | Percent Growth (TK-10; TK-10, Log10 conc -7.0 Moles/L): 85% | Mean Optical Densities (TK-10; TK-10, Log10 conc -8.0 Moles/L): 1.449 | Percent Growth (TK-10; TK-10, Log10 conc -8.0 Moles/L): 96% | Log10 TGI (ACHN): −5.55 | TGI (ACHN): 2.81 µM | GI50 (ACHN; read-out: GI50): 1.49 µM | GI50 (ACHN; [1]): 1.48 µM | Mean Optical Densities (ACHN; Log10 conc -4.0 Moles/L): −0.041 | Percent Growth (ACHN; Log10 conc -4.0 Moles/L): −100% | Mean Optical Densities (ACHN; Log10 conc -5.0 Moles/L): −0.031 | Percent Growth (ACHN; Log10 conc -5.0 Moles/L): −100% | Mean Optical Densities (ACHN; Log10 conc -6.0 Moles/L): 0.705 | Percent Growth (ACHN; Log10 conc -6.0 Moles/L): 81% | Mean Optical Densities (ACHN; Log10 conc -7.0 Moles/L): 0.711 | Percent Growth (ACHN; Log10 conc -7.0 Moles/L): 83% | Mean Optical Densities (ACHN; Log10 conc -8.0 Moles/L): 0.721 | Percent Growth (ACHN; Log10 conc -8.0 Moles/L): 85% | CC50 (UO-31; UO-31, read-out: LC50): 5.03 µM | CC50 (UO-31; UO-31, read-out: Log10 LC50 (converted)): 5.01 µM | GI50 (UO-31; UO-31, read-out: GI50): 1.2 µM | GI50 (UO-31; UO-31, read-out: Log10 GI50 (converted)): 1.2 µM | Log10 TGI (UO-31; UO-31): −5.61 | TGI (UO-31; UO-31): 2.45 µM | Mean Optical Densities (UO-31; UO-31, Log10 conc -4.0 Moles/L): 0.039 | Percent Growth (UO-31; UO-31, Log10 conc -4.0 Moles/L): −87% | Mean Optical Densities (UO-31; UO-31, Log10 conc -5.0 Moles/L): 0.006 | Percent Growth (UO-31; UO-31, Log10 conc -5.0 Moles/L): −98% | Mean Optical Densities (UO-31; UO-31, Log10 conc -6.0 Moles/L): 0.833 | Percent Growth (UO-31; UO-31, Log10 conc -6.0 Moles/L): 63% | Mean Optical Densities (UO-31; UO-31, Log10 conc -7.0 Moles/L): 1.056 | Percent Growth (UO-31; UO-31, Log10 conc -7.0 Moles/L): 89% | Mean Optical Densities (UO-31; UO-31, Log10 conc -8.0 Moles/L): 1.076 | Percent Growth (UO-31; UO-31, Log10 conc -8.0 Moles/L): 91%
